Data reported in patent US11224582B2, “Amino acid formulations for pancreatic viability” (Almeda Labs LLC, priority 2017, dated 2022).
Entries after “also recorded” stand apart in the source; their conditions may differ.

Assays:
[1] = tested on: human beta-cell line (INS-1 832/13); assay: Viability assay (PrestoBlue) of beta-cell line with single amino acids, double crosses and blends, Example 4; conditions: for effect of single amino acid on cell viability: 5-hour exposure in PBS; for effect on cell viability in single / double crosses: each amino acid at 1 mg/mL; for effect on cell viability at the highest doses / higher concentrations: single amino acids
Description: The human beta-cell line (INS-1 832/13) was expanded and maintained in RPMI-1640 growth media during expansion. Cells were grown and sustained in T75 cell culture flasks in an incubator at 37° C. and 5% CO2. Cells were passaged every 4th day via trypsinization. All cell media changes and passage work was done under a biosafety hood to ensure sterility of the cultures. Readings were obtained from the EnSpire Multimode Plate Reader (Perkin Elmer) with excitation of 560 nm and emission of 590 nm. To avoid plate edge effects the outer wells of each plate were used as blanks.
The INS-1 832/13 cell line, a derivation of the INS-1 cell line, was cultured in a growth medium consisting of RPMI-1640, along with 1 M HEPES buffer solution, 50×INS supplement (glutamine, Na-pyruvate, and B-mercaptoethanol), Antibiotic-Antimycotic (Gibco by LifeTechnologies), and Fetal Bovine Serum (HyClone). Cells were grown and sustained in a T75 cell culture flask. The cells were placed in a humidified incubator at 37° C. and 5% CO2. Due to the rapid growth of these cells, media was changed on every second day and passaged on every fourth day via trypsinization. When cells were confluent, they were exposed to amino acids as described below.
Pilot studies were undertaken with 6 single amino acids to determine the optimal conditions for cell testing, and the optimal time for exposure to the amino acids. […] Thus, a second trial was undertaken removing the media and placing cells in phosphate buffered saline at the time of the amino acid addition. […] Thus, the optimal conditions were determined to be a 5-hour exposure to the amino acids in PBS.
For the full study, cells plated in 384-well plates were exposed to individual amino acids at 10 full-log doses for 4 hours at 37° C. and 5% CO2. PrestoBlue (10%) was added to each well using the Hamilton Star Automated Fluid Handling System, and 1 hour later, for a total of 5 hours of exposure to the amino acids.
The plates were loaded into the EnSpire plate reader with excitation of 560 nm and emission of 590 nm excitation wavelengths.
Amino acids were added to a minimal buffer in full log concentrations starting at 1E−08 through 10 mg/mL. […] In the graph, the data have been normalized to cell viability in minimal buffer with no amino acids (100%).
Thus, a concentration of 1 mg/mL of a single amino acid is actually a 5 mg/mL of the full blend, because there are 5 different amino acids in each blend mixed in equal amounts.

rat islets [2] = assay: Islet survival (number of islets over time in culture); type: cell-based
Excerpt: The objective of the experiment was to test the effect of long-term exposure of rat islets to Amino Acid Formulation #1 and compare those results to the currently-marketed amino acid, cysteine. A group without added amino acids was used as a control group. The comparison was based on the number of dead cells within islets over time, a count of the number of islets surviving over time, and the functional test of cellular metabolism after long-term exposure.
Rat islets were isolated from the pancreata of female animals under approved protocol and SOPs. […] The imaging capabilities of the Cytation plate reader was utilized for survival values.
All groups began with the same number of total islets per group.

rat islets [3] = assay: Viability assay of rat islets (Yo-Pro / propidium iodide staining); type: cell-based; conditions: for Apoptotic Cells (%) / Live Cells (%) / Necrotic Cells (%): 1 g/L in RPMI, 11.6 mM glucose
Description: During the long-term (11 day) exposure, the islets were administered Amino Acid Formulation #1 or cysteine (at the same concentration) or culture media with no added amino acids.
Isolated rat islets were cultured in 100 cm^2 cell culture plates (untreated) in 20 ml of Roswell Park Memorial Institute (RPMI) media. […] Islets were removed from the dish and placed in 50 ml tubes. Islets were allowed time to settle to the bottom of the tube. The excess media was removed, and the islets were moved to microcentrifuge tubes, and DPBS solution was added to each tube. Cells were washed and fresh DPBS added.
Islets had media changed every 2 days with continuous exposure to Amino Acid Formulation #1, Cysteine alone, or media alone. Amino Acid Formulation #1 was prepared in the lab using amino acid capsules: […]
The working solutions contained 1 g/1 L concentration of Amino Acid Formulation #1 or cysteine alone prepared in RPMI.
25-50 islets were removed from the dishes and placed in 50 ml tubes. Islets were allowed time to settle to the bottom of the tube. The excess media was removed, and the islets were moved to microcentrifuge tubes, and DPBS solution was added to each tube. Cells were washed and fresh DPBS added. Propidium iodide and yo-pro were added to the tubes at a ratio of 1 μl reagent to 1 ml cells in DPBS.
Individual wells of 96-well plates were manually loaded with 10-15 islets each and checked visually under a microscope for consistency between wells. 30 minutes later, the plates were loaded into the BioTeck plate reader with readings for Yo-Pro and Propidium iodide with additional verification of islet tissue using dithizone staining.
Results were saved as images for later cellular analysis.
All islets identified in each condition were scored for the percent area of apoptotic and necrotic cells. The remaining percentage was calculated as live cells.

rat islets [4] = assay: Dithizone staining / light microscopy of rat islets; type: cell-based; conditions: day 1
Excerpt: Islets were exposed to a single dose of Amino Acid Formulation #1 or cysteine for 11 days. FIG. 1 illustrates images of islets from each condition on day 1, stained with dithizone, which identifies islet cells via dark red color.
In the control media, the same was found.

[5] = Dissolution of test articles in RPMI working solutions; type: physicochemical; conditions: 1 g/1 L in RPMI, after 24 hours at 37° C.
Description: The working solutions contained 1 g/1 L concentration of Amino Acid Formulation #1 or cysteine alone prepared in RPMI. […] The working medium was kept at 37° C. in incubator with islets.

With N[C@@H](CO)C(=O)O [serine, L-Serine] as the compound, how does the “effect of single amino acid on cell viability” value (from here on “effect of single amino acid”) ([1]; 10 mg/mL) read?
Its value is “slightly positive increases in viability”.

With C[C@@H](O)[C@H](N)C(=O)O [threonine, L-Threonine] as the compound, how does the “effect of single amino acid” value ([1]; 10 mg/mL) read?
Its value is “slightly positive increases in viability”.

What does the source list for NC(=O)C[C@H](N)C(=O)O [asparagine, L-Asparagine]?
cells left in the dish that were alive ([1]; double cross: another 1 mg/mL of asparagine added to 1 mg/mL asparagine): 18%; effect on cell viability in single / double crosses [1]: dramatic reduction in beta cell viability; effect on cell viability at the highest doses / higher concentrations [1]: negative effects on cell viability at the highest doses; effect of single amino acid on cell viability ([1]; starting at 1 mg/mL): dramatic reductions in the viability

What does the source list for N[C@@H](CS)C(=O)O [Cysteine, L-Cysteine]?
islets found in the group (rat islets [2]; day 8): No islets could be identified; also recorded: no live islets could be found; islet survival time in culture (rat islets [2]; no islets survived past this time): ≤ 6 days; number of islets as % of the Amino Acid Formulation #1 group (rat islets [2]; within 24 hours of exposure): 78%; route of cell death (apoptosis / necrosis) (rat islets [3]): both apoptosis and necrosis; cell death (Yo-Pro and Propidium Iodide staining) (rat islets [3]; 24 hours exposure, compared with control and Formulation #1): greater than the other 2; Apoptotic Cells (%) (rat islets [3]; Day 1): 18.2 + 21.3%; Live Cells (%) (rat islets [3]; Day 1): 58.4 ± 33.4 %; Necrotic Cells (%) (rat islets [3]; Day 1): 23.4 ± 20.4%; Apoptotic Cells (%) (rat islets [3]; Day 4): 47.1 ± 35.9%; Live Cells (%) (rat islets [3]; Day 4): 42.0 ± 39.8 %; Necrotic Cells (%) (rat islets [3]; Day 4): 10.9 + 13.4%; viability compared with the other groups (rat islets [3]; days 1, 4 and 8): significantly lower viability than the other two groups; islets with core cell death (rat islets [4]): approximately 30%; undissolved crystals in working solution [5]: still had microscopic crystals that had not gone completely into solution; effect of single amino acid on cell viability ([1]; 0.01 mg/mL and higher): positive impact on cell viability; effect on cell viability in single / double crosses [1]: most positive effect on cell health; effect on cell viability at the highest doses / higher concentrations [1]: improve viability at the higher concentrations tested

Which “effect on cell viability in single / double crosses” value [1] does the source give for N=C(N)NCCC[C@H](N)C(=O)O [arginine, L-Arginine] here?
Its value is “decrease in cell viability when added to any other amino acid”.

What about the “effect on cell viability at the highest doses / higher concentrations” value [1] of the same compound?
Its value is “negative effects on cell viability at the highest doses”.

And the “effect of single amino acid” value ([1]; starting at 1 mg/mL)?
Its value is “dramatic reductions in the viability”.

With N[C@@H](Cc1c[nH]cn1)C(=O)O [histidine, L-Histidine] as the compound, how does the “effect on cell viability in single / double crosses” value [1] read?
Its value is “very little effect on cell viability except when paired with asparagine or arginine”.

And the “cells killed (fraction, words)” value ([1]; single amino acid, high doses (from 1 mg/mL))?
Its value is “approximately half”.

What about the “effect of single amino acid” value ([1]; starting at 1 mg/mL) of the same compound?
The value was “dramatic reductions in the viability”.
